# In paper PMC11129975, “A first-in-human phase I study of TAS-117, an allosteric AKT inhibitor, in patients with advanced solid tumors” (Cancer Chemotherapy and Pharmacology, 2024):
# Where two headings read alike, the source gives them in different places. Marks after values point to notes of the source that are not given here.
# Assays:
# [1] = system: multiple tumor cell lines derived from human cancers; set-up: method as in data on file, Taiho Pharmaceutical Co., Ltd.; settings: breast, ovarian, gastric, endometrial and myeloma lines; ref data on file, Taiho Pharmaceutical Co., Ltd.; cited from earlier work
# NCI-N87 = settings: oral dosing; NCI-N87 (HER2 amplification); cited from earlier work
# [2] = Plasma and urine pharmacokinetics of TAS-117 in patients; type: in vivo, human
# Protocol: Blood samples for pharmacokinetic analysis were collected immediately prior to dosing (0 h) and at 0.5, 1, 2, 3, 4, 6, 8, 12, and 24 h post-dose on Day 1 and Day 21 of Cycle 1 for patients in the DEP (QD dosing). For patients who received intermittent dosing regimens, blood was collected immediately prior to dosing (0 h) and at 1, 2, 3, 4, 6, 8, 10, and 24 h post-dose on Cycle 1 Day 1; immediately prior to dosing (0 h) on Cycle 1 Days 3, 4, and 8; and immediately prior to dosing (0 h) and at 1, 2, 3, 4, 6, 8, 10, 24, 48, and 96 h post-dose on Cycle 1 Day 18. Urine samples for pharmacokinetic analysis were collected immediately prior to dosing (single sample collection) and from 0 to 6 h and from 6 to 12 h and 12 to 24 h post-dose on Day 1 of Cycle 1 for both QD and intermittent dosing. Blood samples for pharmacodynamic analysis were collected at pre-dose and 4, 8, and 24 h post-dose on Cycle 1 Day 1, and at pre-dose and 4 h post-dose on Cycle 1 Day 21 (QD dosing) or Cycle 1 Day 18 (intermittent dosing).
# Descriptive data were used to summarize safety data and antitumor activity. Pharmacokinetic parameters were derived using non-compartmental analysis and summarized descriptively by dose level, study day, and study phase. […] The accumulation of TAS-117 was assessed by comparing pharmacokinetic parameters on Day 1 and Day 21 (QD) or Day 18 (intermittent dosing). Pharmacodynamic data were presented using summary statistics of the ratio of pPRAS40/total PRAS40 to baseline values (pre-dose) on Day 1 and Day 18 or 21, by dose level and treatment regimen. Pharmacogenomics data were summarized, and the relevance between biomarkers and efficacy was analyzed using Fisher’s Exact test.
# P-values < 0.05 were considered significant. Missing data were not imputed, and analyses were performed using all available data. Plasma pharmacokinetic parameters were evaluated using Phoenix® WinNonlin® software (Pharsight Corporation as part of Certara, Princeton, NJ, US, Version 8.1 or 8.3). Statistical analyses were performed using SAS version 9.4 (SAS Institute; Cary, NC, US).
# [3] = set-up: method as in data on file, Taiho Pharmaceutical Co., Ltd.; settings: ref data on file, Taiho Pharmaceutical Co., Ltd., cited from earlier work
# [4] = set-up: method as in data on file, Taiho Pharmaceutical Co., Ltd.; settings: repeated dosing; ref data on file, Taiho Pharmaceutical Co., Ltd.; cited from earlier work
# KPL-4 = settings: oral dosing; KPL-4 (HER2 amplification, PIK3CA mutation); cited from earlier work
# [5] = DEP, Cycle 1 Day 1, 8 mg QD, n = 1
# [6] = DEP, Cycle 1 Day 1, 16 mg QD, n = 6
# [7] = DEP, Cycle 1 Day 1, 24 mg QD, n = 3
# [8] = DEP, Cycle 1 Day 1, 24 mg QD, n = 2
# [9] = DEP, Cycle 1 Day 21, 8 mg QD, n = 1
# [10] = DEP, Cycle 1 Day 21, 16 mg QD, n = 3
# [11] = DEP, Cycle 1 Day 21, 16 mg QD, n = 2
# [12] = DEP, Day 21 vs Day 1, 16 mg QD, n = 3
# [13] = RMP, Cycle 1 Day 1, 24 mg intermittent dosing (4 days on/3 days off), n = 6
# [14] = RMP, Cycle 1 Day 1, 24 mg intermittent dosing (4 days on/3 days off), n = 5
# [15] = RMP, Cycle 1 Day 1, 32 mg intermittent dosing (4 days on/3 days off), n = 4
# [16] = RMP, Cycle 1 Day 18, 24 mg intermittent dosing (4 days on/3 days off), n = 5
# [17] = RMP, Cycle 1 Day 18, 32 mg intermittent dosing (4 days on/3 days off), n = 1
# [18] = RMP, Day 18 vs Day 1, 24 mg intermittent dosing, n = 5
# [19] = RMP, Day 18 vs Day 1, 32 mg intermittent dosing, n = 1
structure (smiles),measurement,setting,value
C[C@]1(O)C[C@@](N)(c2ccc(-c3nc4n(c3-c3ccccc3)COc3ccncc3-4)cc2)C1 [TAS-117],Anti-proliferative activity,[1],strong anti-proliferative activity
same,Antitumor activity,NCI-N87,demonstrated single-agent antitumor activity
same,"Dose proportionality of Cmax, AUClast and AUC0–24",[2]; 8 to 32 mg dose range,dose proportional
same,AUC0–24,[2]; [5],164 ng·h/mL
same,AUClast,[2]; [5],165 ng·h/mL
same,CLr,[2]; [5],4.11 L/h
same,Cmax,[2]; [5],8.82 ng/mL
same,t1/2,[2]; [5],21.96 h
same,tmax,[2]; [5],1.93 h
same,Fe,"[2]; DEP, Cycle 1 Day 1, 8 mg QD, n = 1, urinary excretion rate as percentage of dose",8.45%
same,"AUC0–24, Mean (SD)",[2]; [6],315 (73) ng·hr/mL
same,"AUC0–24, gMean",[2]; [6],308 ng·h/mL
same,"AUClast, Mean (SD)",[2]; [6],316 (73) ng·hr/mL
same,"AUClast, gMean",[2]; [6],308 ng·h/mL
same,"CLr, Mean (SD)",[2]; [6],5.20 (2.19) L/h
same,"CLr, gMean",[2]; [6],4.78 L/h
same,"Cmax, Mean (SD)",[2]; [6],25.1 (7.66) ng/mL
same,"Cmax, gMean",[2]; [6],24.1 ng/mL
same,"Fe, Mean (SD)",[2]; [6],10.43 (4.94) %
same,"Fe, gMean",[2]; [6],9.20%
same,"t1/2, Mean (SD)",[2]; [6],26.98 (6.06) h
same,"t1/2, gMean",[2]; [6],26.40 h
same,"tmax, median (min, max)",[2]; [6],"2.98 (1.88, 3.89)^c h"
same,"AUC0–24, Mean (SD)",[2]; [7],438 (194) ng·hr/mL
same,"AUC0–24, gMean",[2]; [7],407 ng·h/mL
same,"AUClast, Mean (SD)",[2]; [7],438 (193) ng·hr/mL
same,"AUClast, gMean",[2]; [7],408 ng·h/mL
same,"CLr, Mean (SD)",[2]; [7],6.39 (2.72) L/h
same,"CLr, gMean",[2]; [7],6.04 L/h
same,"Cmax, Mean (SD)",[2]; [7],31.0 (15.7) ng/mL
same,"Cmax, gMean",[2]; [7],28.6 ng/mL
same,"Fe, Mean (SD)",[2]; [7],10.48 (2.73) %
same,"Fe, gMean",[2]; [7],10.25%
same,"tmax, median (min, max)",[2]; [7],"3.98 (3.92, 6.00)^c h"
same,"t1/2, Mean (SD)",[2]; [8],23.06 (NC)^d h
same,"t1/2, gMean",[2]; [8],22.61^d h
same,AUClast,[2]; [9],604 ng·h/mL
same,Cmax,[2]; [9],33.1 ng/mL
same,tmax,[2]; [9],7.85 h
same,"AUC0–24, Mean (SD)",[2]; [10],865 (216) ng·hr/mL
same,"AUC0–24, gMean",[2]; [10],846 ng·h/mL
same,"AUClast, Mean (SD)",[2]; [10],864 (220) ng·hr/mL
same,"AUClast, gMean",[2]; [10],844 ng·h/mL
same,"Cmax, Mean (SD)",[2]; [10],61.4 (22.2) ng/mL
same,"Cmax, gMean",[2]; [10],58.3 ng/mL
same,"tmax, median (min, max)",[2]; [10],"1.93 (1.87, 2.02)^c h"
same,"t1/2, Mean (SD)",[2]; [11],41.65 (NC)^d h
same,"t1/2, gMean",[2]; [11],41.23^d h
same,Observed accumulation ratio of Cmax,"[2]; DEP, Day 21 vs Day 1, 8 mg QD, n = 1",3.75
same,"Observed accumulation ratio of AUC0–24, Mean (SD)",[2]; [12],2.84 (0.04)
same,"Observed accumulation ratio of AUC0–24, gMean",[2]; [12],2.83
same,"Observed accumulation ratio of Cmax, Mean (SD)",[2]; [12],2.71 (0.48)
same,"Observed accumulation ratio of Cmax, gMean",[2]; [12],2.69
same,"AUC0–24, Mean (SD)",[2]; [13],543 (108) ng·hr/mL
same,"AUC0–24, gMean",[2]; [13],534 ng·h/mL
same,"AUClast, Mean (SD)",[2]; [13],542 (107) ng·hr/mL
same,"AUClast, gMean",[2]; [13],533 ng·h/mL
same,"CLr, Mean (SD)",[2]; [13],4.55 (1.43) L/h
same,"CLr, gMean",[2]; [13],4.34 L/h
same,"Cmax, Mean (SD)",[2]; [13],42.1 (11.1) ng/mL
same,"Cmax, gMean",[2]; [13],40.9 ng/mL
same,"Fe, Mean (SD)",[2]; [13],10.02 (2.85) %
same,"Fe, gMean",[2]; [13],9.65%
same,"tmax, median (min, max)",[2]; [13],"3.28 (0.95, 4.15)^c h"
same,"t1/2, Mean (SD)",[2]; [14],31.92 (10.77)^e h
same,"t1/2, gMean",[2]; [14],30.44^e h
same,"AUC0–24, Mean (SD)",[2]; [15],770 (155) ng·hr/mL
same,"AUC0–24, gMean",[2]; [15],758 ng·h/mL
same,"AUClast, Mean (SD)",[2]; [15],774 (162) ng·hr/mL
same,"AUClast, gMean",[2]; [15],761 ng·h/mL
same,"CLr, Mean (SD)",[2]; [15],4.12 (1.82) L/h
same,"CLr, gMean",[2]; [15],3.80 L/h
same,"Cmax, Mean (SD)",[2]; [15],60 (18.4) ng/mL
same,"Cmax, gMean",[2]; [15],58.0 ng/mL
same,"Fe, Mean (SD)",[2]; [15],9.32 (2.71) %
same,"Fe, gMean",[2]; [15],9.01%
same,"t1/2, Mean (SD)",[2]; [15],24.02 (3.80) h
same,"t1/2, gMean",[2]; [15],23.81 h
same,"tmax, median (min, max)",[2]; [15],"2.43 (1.95, 4.03)^c h"
same,"AUC0–24, Mean (SD)",[2]; [16],1498 (500) ng·hr/mL
same,"AUC0–24, gMean",[2]; [16],1433 ng·h/mL
same,"AUClast, Mean (SD)",[2]; [16],3542 (1023) ng·hr/mL
same,"AUClast, gMean",[2]; [16],3420 ng·h/mL
same,"Cmax, Mean (SD)",[2]; [16],89.9 (37.4) ng/mL
same,"Cmax, gMean",[2]; [16],83.8 ng/mL
same,"t1/2, Mean (SD)",[2]; [16],49.31 (7.73) h
same,"t1/2, gMean",[2]; [16],48.83 h
same,"tmax, median (min, max)",[2]; [16],"2.00 (0.98, 5.92)^c h"
same,AUC0–24,[2]; [17],2105 ng·h/mL
same,AUClast,[2]; [17],5558 ng·h/mL
same,Cmax,[2]; [17],160 ng/mL
same,t1/2,[2]; [17],49.63 h
same,tmax,[2]; [17],1.00 h
same,"Observed accumulation ratio of AUC0–24, Mean (SD)",[2]; [18],2.70 (0.37)
same,"Observed accumulation ratio of AUC0–24, gMean",[2]; [18],2.68
same,"Observed accumulation ratio of Cmax, Mean (SD)",[2]; [18],2.06 (0.73)
same,"Observed accumulation ratio of Cmax, gMean",[2]; [18],1.95
same,Observed accumulation ratio of AUC0–24,[2]; [19],2.69
same,Observed accumulation ratio of Cmax,[2]; [19],2.50
same,Steady state reached by,[2]; indicated by t1/2 data,≤ 8 days
same,Highest non-severely toxic dose,[3]; 4-week repeated oral dose,1.2 mg/kg/day
same,Toxicity findings,[3]; repeated dosing,dysregulation of carbohydrate metabolism and atrophic changes in the lymphatic/hematopoietic organs and adipocytes
same,Toxicity findings,[4],dysregulation of carbohydrate metabolism and atrophic changes in the lymphatic/hematopoietic organs and adipocytes
same,Antitumor activity,KPL-4,demonstrated single-agent antitumor activity
